Reference: patent publication US20250154144A1 (CHILDREN'S HOSPITAL MEDICAL CENTER, priority 2021, published 2025)
pIC50, pKd: −log10 of the molar value. Like-named read-outs stand apart in the source and are kept apart here. Blank lines part the entries; values can stand above or below the compound they belong to.

What was measured:
MOLM14 F691L cells = assay: cells; assay type: cell-based; conditions: Homo sapiens, MOLM-14, 48 h, 48 hours, Cell Titer Glo; read-out: MOLM14 F691L IC50
FLT3 = target: T1, FLT3 (Homo sapiens, UniProt P36888); assay: DiscoverX KINOMEscan competition binding, FLT3; parameters: using full-length kinases in the presence of cellular concentrations of ATP in live, uncompromised cells
T1 sequence (P36888 27-993): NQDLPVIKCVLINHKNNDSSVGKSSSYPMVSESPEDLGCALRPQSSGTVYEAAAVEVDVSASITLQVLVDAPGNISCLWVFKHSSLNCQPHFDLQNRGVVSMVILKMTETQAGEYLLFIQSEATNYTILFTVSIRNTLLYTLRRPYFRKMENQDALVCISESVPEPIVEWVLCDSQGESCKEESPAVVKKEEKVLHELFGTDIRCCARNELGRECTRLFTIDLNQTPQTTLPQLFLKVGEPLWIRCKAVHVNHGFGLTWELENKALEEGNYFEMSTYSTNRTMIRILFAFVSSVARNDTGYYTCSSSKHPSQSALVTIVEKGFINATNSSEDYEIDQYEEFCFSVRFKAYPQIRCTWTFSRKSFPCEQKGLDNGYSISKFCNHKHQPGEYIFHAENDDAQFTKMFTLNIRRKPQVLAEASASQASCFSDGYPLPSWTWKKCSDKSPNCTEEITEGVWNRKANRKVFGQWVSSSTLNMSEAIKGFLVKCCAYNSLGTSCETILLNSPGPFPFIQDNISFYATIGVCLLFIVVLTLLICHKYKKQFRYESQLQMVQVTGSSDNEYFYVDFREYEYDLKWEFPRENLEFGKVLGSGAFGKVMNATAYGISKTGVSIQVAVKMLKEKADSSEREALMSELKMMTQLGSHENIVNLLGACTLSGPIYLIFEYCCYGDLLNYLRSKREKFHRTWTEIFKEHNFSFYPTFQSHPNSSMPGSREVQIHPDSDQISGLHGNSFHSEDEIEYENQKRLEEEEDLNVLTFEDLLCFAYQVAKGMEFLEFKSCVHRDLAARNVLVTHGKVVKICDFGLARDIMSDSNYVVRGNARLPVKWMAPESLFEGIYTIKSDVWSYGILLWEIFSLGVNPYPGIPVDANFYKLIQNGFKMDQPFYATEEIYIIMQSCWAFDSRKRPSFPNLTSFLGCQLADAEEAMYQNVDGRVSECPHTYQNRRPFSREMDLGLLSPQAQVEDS

FLT3 ITD, F691L = target: T2, FLT3 ITD, F691L (Homo sapiens, UniProt P36888, F691L, form not given); assay: DiscoverX KINOMEscan competition binding, FLT3 ITD, F691L; conditions: read-out: FLT3 ITD, F691L Kd
T2 sequence (P36888 1-993 F691L): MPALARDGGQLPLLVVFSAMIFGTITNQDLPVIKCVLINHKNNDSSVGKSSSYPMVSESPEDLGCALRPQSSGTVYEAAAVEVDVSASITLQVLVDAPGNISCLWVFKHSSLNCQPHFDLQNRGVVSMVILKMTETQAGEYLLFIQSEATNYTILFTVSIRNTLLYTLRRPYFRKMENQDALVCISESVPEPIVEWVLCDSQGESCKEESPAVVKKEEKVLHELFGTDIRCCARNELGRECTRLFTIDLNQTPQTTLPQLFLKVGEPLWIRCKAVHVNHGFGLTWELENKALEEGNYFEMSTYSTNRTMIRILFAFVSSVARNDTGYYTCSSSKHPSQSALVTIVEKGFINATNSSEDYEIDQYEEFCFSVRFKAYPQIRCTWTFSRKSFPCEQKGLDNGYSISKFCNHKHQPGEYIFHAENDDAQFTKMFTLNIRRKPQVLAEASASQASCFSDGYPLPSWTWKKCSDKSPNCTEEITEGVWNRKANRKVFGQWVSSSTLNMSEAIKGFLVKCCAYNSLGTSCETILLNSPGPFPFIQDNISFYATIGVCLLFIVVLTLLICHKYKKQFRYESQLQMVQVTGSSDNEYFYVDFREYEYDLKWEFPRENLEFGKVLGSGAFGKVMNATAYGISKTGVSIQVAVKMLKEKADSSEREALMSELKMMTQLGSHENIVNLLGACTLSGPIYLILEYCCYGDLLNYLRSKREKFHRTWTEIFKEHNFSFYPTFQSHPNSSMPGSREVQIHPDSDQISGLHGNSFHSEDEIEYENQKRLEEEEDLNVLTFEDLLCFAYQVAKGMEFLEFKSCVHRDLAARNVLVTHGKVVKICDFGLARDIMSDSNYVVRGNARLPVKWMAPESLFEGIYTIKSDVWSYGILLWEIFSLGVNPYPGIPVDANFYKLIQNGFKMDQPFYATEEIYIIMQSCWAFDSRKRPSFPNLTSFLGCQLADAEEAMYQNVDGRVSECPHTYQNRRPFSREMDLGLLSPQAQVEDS

MOLM14(D835Y) cells = assay type: cell-based
[1] = starting conc. 100 nM, with (+)-BAY-1251152 starting conc. 1000 nM
[2] = starting conc. 100 nM, with TNO-155 starting conc. 10000 nM
[3] = starting conc. 100 nM, with Venetoclax (ABT-199) starting conc. 2000 nM
[4] = starting conc. 100 nM, with Venetoclax (ABT-199) starting conc. 20000 nM
[5] = starting conc. 20000 nM, with (+)-BAY-1251152 starting conc. 1000 nM
[6] = starting conc. 20000 nM, with TNO-155 starting conc. 10000 nM
[7] = starting conc. 20000 nM, with Venetoclax (ABT-199) starting conc. 2000 nM
[8] = starting conc. 20000 nM, with Venetoclax (ABT-199) starting conc. 20000 nM

pIC50 (MOLM14 F691L cells): 6.51 | pKd (FLT3): 9.59 | pKd (FLT3 ITD, F691L): 10.07
SMILES: COc1cc2ncc(-c3ccnc(N[C@H]4CNC[C@@H]4F)n3)n2nc1C1CC1 [Compound 49, 4-(6-cyclopropyl-7-methoxyimidazo[1,2-b]pyridazin-3-yl)-N-((3S,4S)-4-fluoropyrrolidin-3-yl)pyrimidin-2-amine]

pIC50 (MOLM14 F691L cells): 6.76
SMILES: COc1cc2ncc(-c3ccnc(N[C@@H]4CCCNC4)n3)n2nc1C1CC1 [Compound 50, (R)-4-(6-cyclopropyl-7-methoxyimidazo[1,2-b]pyridazin-3-yl)-N-(piperidin-3-yl)pyrimidin-2-amine]
Excess HSA Score (MOLM14(D835Y) cells; MOLM14(D835Y) cells, 10 × 10, combination with (+)-BAY-1251152): −552.5 | Excess HSA Score (MOLM14(D835Y) cells; MOLM14(D835Y) cells, 10 × 10, combination with AMG-232): −129.9 | Excess HSA Score (MOLM14(D835Y) cells; MOLM14(D835Y) cells, 10 × 10, combination with AZD-5363): 12.5 | Excess HSA Score (MOLM14(D835Y) cells; MOLM14(D835Y) cells, 10 × 10, combination with Eprenetapopt/APR-246): −99.03 | Excess HSA Score (MOLM14(D835Y) cells; MOLM14(D835Y) cells, 10 × 10, combination with Ivosidenib): 219 | Excess HSA Score (MOLM14(D835Y) cells; MOLM14(D835Y) cells, 10 × 10, combination with Lenalidomide): 555 | Excess HSA Score (MOLM14(D835Y) cells; MOLM14(D835Y) cells, 10 × 10, combination with Palbociclib): −528.5 | Excess HSA Score (MOLM14(D835Y) cells; MOLM14(D835Y) cells, 10 × 10, combination with Prednisolone): 196.6 | Excess HSA Score (MOLM14(D835Y) cells; MOLM14(D835Y) cells, 10 × 10, combination with SNDX-5613): −229.3 | Excess HSA Score (MOLM14(D835Y) cells; MOLM14(D835Y) cells, 10 × 10, combination with TNO-155): −1021 | Excess HSA Score (MOLM14(D835Y) cells; MOLM14(D835Y) cells, 10 × 10, combination with Trametinib): −342.3 | Excess HSA Score (MOLM14(D835Y) cells; MOLM14(D835Y) cells, 10 × 10, combination with Ulixertinib): 149.4 | Excess HSA Score (MOLM14(D835Y) cells; MOLM14(D835Y) cells, 10 × 10, combination with Venetoclax (ABT-199)): −1391 | Comments (MOLM14(D835Y) cells; MOLM14(D835Y) cells, combination with AZD-5363): Antagonistic | Comments (MOLM14(D835Y) cells; MOLM14(D835Y) cells, combination with Venetoclax (ABT-199)): Synergistic | Comments (MOLM14(D835Y) cells; [1]): Synergistic | Excess HSA Score (MOLM14(D835Y) cells; [1]): −317.9 | Excess HSA Score (MOLM14(D835Y) cells; starting conc. 100 nM, with Azacitidine (5-Azacytidine) starting conc. 20000 nM): −579.8 | Excess HSA Score (MOLM14(D835Y) cells; starting conc. 100 nM, with Palbociclib starting conc. 10000 nM): −1019 | Excess HSA Score (MOLM14(D835Y) cells; starting conc. 100 nM, with Prednisolone starting conc. 10000 nM): 9.258 | Comments (MOLM14(D835Y) cells; [2]): Synergistic | Excess HSA Score (MOLM14(D835Y) cells; [2]): −1043.6684 | Comments (MOLM14(D835Y) cells; [3]): Synergistic; | Excess HSA Score (MOLM14(D835Y) cells; [3]): −1372 | Comments (MOLM14(D835Y) cells; [4]): Synergistic; | Excess HSA Score (MOLM14(D835Y) cells; [4]): −83.83 | Comments (MOLM14(D835Y) cells; [5]): Antagonistic | Excess HSA Score (MOLM14(D835Y) cells; [5]): 67.99 | Excess HSA Score (MOLM14(D835Y) cells; starting conc. 20000 nM, with Azacitidine (5-Azacytidine) starting conc. 20000 nM): −56.9 | Excess HSA Score (MOLM14(D835Y) cells; starting conc. 20000 nM, with Palbociclib starting conc. 10000 nM): −31.37 | Excess HSA Score (MOLM14(D835Y) cells; starting conc. 20000 nM, with Prednisolone starting conc. 10000 nM): 121.2 | Comments (MOLM14(D835Y) cells; [6]): Additive | Excess HSA Score (MOLM14(D835Y) cells; [6]): −2.487 | Comments (MOLM14(D835Y) cells; [7]): Synergistic; | Excess HSA Score (MOLM14(D835Y) cells; [7]): −1026 | Comments (MOLM14(D835Y) cells; [8]): Synergistic; | Excess HSA Score (MOLM14(D835Y) cells; [8]): −74.01
